Format in all cases: toxicity, cell-based
In series [1] the test system is Fibroblast. Kind of series: Incucyte cell viability with human fibroblast. Conditions: 10 µM, compound concentration 10 uM.
For series [2], the system named is HEK-293T. Kind of series: Incucyte cell viability with HEK293T. Conditions: human, 10 µM, compound concentration 10 uM.
Series [3] has as its system U2OS. Kind of series: Incucyte cell viability with U2OS. The following applies: human, 10 µM, compound concentration 10 uM.
Further: unitless GR value; below 1 slowed growth and below 0 cell loss.

For `CC(C)(O)C(=O)N1CCN(c2ccc(C(F)(F)F)c(C3=C(c4c[nH]c5ccccc45)C(=O)NC3=O)c2)CC1`, the “Growth Rate” value in series [1] (0 h, replicate number 2) is given as -1; in series [1] (6 h, replicate number 1) it was -0.74; in series [1] (12 h, replicate number 1) it was -1; in series [1] (18 h, replicate number 2), 0.73; in series [1] (24 h, replicate number 2) it was 0.3; in series [2] (0 h, replicate number 1) it was 0.94. The “Growth Rate” value in series [2] (6 h, replicate number 1) is 0.81; in series [2] (6 h, replicate number 2), 0.29; in series [2] (12 h, replicate number 2) it was 0.57; in series [2] (18 h, replicate number 1), 0.83; in series [2] (18 h, replicate number 2) it was 0.49; in series [2] (24 h, replicate number 1), 0.61. In addition, the “Growth Rate” value in series [2] (24 h, replicate number 2) is 0.42; in series [3] (0 h, replicate number 1), -0.61; in series [3] (12 h, replicate number 1) it was 0.93; in series [3] (18 h, replicate number 1), 0.9; in series [3] (18 h, replicate number 2) it was 0.8; in series [3] (24 h, replicate number 1) it was 0.76. Besides, the “Growth Rate” value in series [3] (24 h, replicate number 2) is reported as 0.83.
As to `O=C(Nc1c(-c2cccs2)nc2ccc(Cl)cn12)c1ccc(Cl)cc1`, the “Growth Rate” value is given as 0.89 in series [1] (0 h, replicate number 1); -1 in series [1] (6 h, replicate number 2); -1 in series [1] (12 h, replicate number 1); 0.47 in series [1] (18 h, replicate number 1); 0.88 in series [2] (6 h, replicate number 1); 0.3 in series [3] (6 h, replicate number 1). Further, the “Growth Rate” value amounted to 0.69 in series [3] (6 h, replicate number 2); 0.64 in series [3] (12 h, replicate number 1); 0.81 in series [3] (12 h, replicate number 2); 0.95 in series [3] (18 h, replicate number 1); 0.75 in series [3] (18 h, replicate number 2); 0.97 in series [3] (24 h, replicate number 1). Further, the “Growth Rate” value in series [3] (24 h, replicate number 2) was determined as 0.56.
For the molecule `CCc1nc(-c2cccc(C)c2)c(-c2ccncc2)s1`, the “Growth Rate” value in series [1] (0 h, replicate number 1) is -0.98; in series [1] (0 h, replicate number 2), 0.64; in series [1] (6 h, replicate number 2) it was 1; in series [1] (12 h, replicate number 1) it was 0.95; in series [2] (0 h, replicate number 1) it was -0.67; in series [2] (6 h, replicate number 2), 0.9. The “Growth Rate” value is given as 0.99 in series [2] (18 h, replicate number 1); 0.65 in series [3] (0 h, replicate number 2); 0.83 in series [3] (6 h, replicate number 2).
Regarding `CCc1cc2c(cc1-c1cccc(S(=O)(=O)F)c1)C(C)(C)c1[nH]c3cc(C#N)ccc3c1C2=O`, the “Growth Rate” value in series [1] (0 h, replicate number 1) is -0.25; in series [1] (6 h, replicate number 2) it was 0.75; in series [1] (12 h, replicate number 1), -0.96; in series [1] (18 h, replicate number 1) it was -0.55; in series [1] (18 h, replicate number 2), 0.89; in series [1] (24 h, replicate number 1) it was 0.61. Further, the “Growth Rate” value in series [1] (24 h, replicate number 2) is reported as 0.9; in series [2] (0 h, replicate number 1), 0.33; in series [2] (0 h, replicate number 2), 0.37; in series [2] (6 h, replicate number 1) it was -0.16; in series [2] (6 h, replicate number 2), -0.05; in series [2] (12 h, replicate number 1), 0.48. Further, the “Growth Rate” value is 0.78 in series [2] (12 h, replicate number 2); 0.83 in series [2] (18 h, replicate number 1); 0.95 in series [2] (18 h, replicate number 2); 0.69 in series [2] (24 h, replicate number 1); -1 in series [3] (0 h, replicate number 1); -0.59 in series [3] (0 h, replicate number 2). Also, the “Growth Rate” value in series [3] (6 h, replicate number 1) was determined as 0.58; in series [3] (12 h, replicate number 1) it was 0.52; in series [3] (12 h, replicate number 2), 0.66; in series [3] (18 h, replicate number 1) it was 0.76; in series [3] (24 h, replicate number 1), 0.66; in series [3] (24 h, replicate number 2) it was 0.77.
Turning to `Cc1nc2ccccc2c(-c2ccc3c4c(ccnc24)CCO3)c1[C@H](OC(C)(C)C)C(=O)O` [BI-224436], the “Growth Rate” value in series [1] (12 h, replicate number 2) is recorded as 0.76; in series [2] (0 h, replicate number 1), 0.67; in series [2] (0 h, replicate number 2), 0.86; in series [3] (0 h, replicate number 2), -0.37; in series [3] (6 h, replicate number 1), 0.57; in series [3] (6 h, replicate number 2), 0.42. The “Growth Rate” value in series [3] (12 h, replicate number 1) is 0.77; in series [3] (12 h, replicate number 2) it was 0.72; in series [3] (18 h, replicate number 2) it was 0.85; in series [3] (24 h, replicate number 2), 0.75.
`CC(C)Oc1ccc(F)c(-c2cnc(N)c(C(=O)Nc3cnccc3N3CCC[C@@H](C(=O)O)C3)n2)c1`: the “Growth Rate” value is 0.44 in series [1] (0 h, replicate number 1); -1 in series [1] (6 h, replicate number 1); 0.97 in series [1] (18 h, replicate number 2); 0.61 in series [1] (24 h, replicate number 2); 0.37 in series [2] (0 h, replicate number 2); 0.61 in series [2] (6 h, replicate number 2). Further, the “Growth Rate” value in series [2] (12 h, replicate number 1) was -0.19; in series [2] (12 h, replicate number 2) it was -0.28; in series [2] (18 h, replicate number 1), -0.11; in series [2] (18 h, replicate number 2), -0.06; in series [2] (24 h, replicate number 1), -0.01; in series [2] (24 h, replicate number 2), 0.05. In addition, the “Growth Rate” value in series [3] (0 h, replicate number 2) is -0.44; in series [3] (24 h, replicate number 1) it was 0.84.
`O=C(NNC(=O)c1ccc(CNS(=O)(=O)c2ccc(F)c(Cl)c2)cc1)c1ccccc1`: the “Growth Rate” value is listed as -0.42 in series [1] (0 h, replicate number 1); -1 in series [1] (0 h, replicate number 2); -0.76 in series [1] (6 h, replicate number 2); 0.64 in series [1] (18 h, replicate number 1); 0.85 in series [1] (18 h, replicate number 2); 0.34 in series [2] (6 h, replicate number 1). Moreover, the “Growth Rate” value is 0.59 in series [2] (6 h, replicate number 2); 0.48 in series [2] (12 h, replicate number 1); 0.64 in series [2] (12 h, replicate number 2); 0.31 in series [2] (18 h, replicate number 1); 0.87 in series [2] (18 h, replicate number 2); 0.36 in series [2] (24 h, replicate number 1). In addition, the “Growth Rate” value in series [2] (24 h, replicate number 2) is 0.83; in series [3] (0 h, replicate number 1) it was 0.67; in series [3] (0 h, replicate number 2) it was 0.85; in series [3] (18 h, replicate number 1) it was 0.97.
With `CC(C)(C)NC(=O)c1cncn1C1CCN(c2ccc(-c3nnc(C(F)(F)F)o3)cn2)CC1`, the “Growth Rate” value is recorded as -1 in series [1] (0 h, replicate number 1); 0.1 in series [1] (6 h, replicate number 1); -0.99 in series [1] (6 h, replicate number 2); -0.09 in series [1] (12 h, replicate number 1); -0.49 in series [1] (12 h, replicate number 2); -0.2 in series [1] (18 h, replicate number 1). Besides, the “Growth Rate” value in series [1] (18 h, replicate number 2) is -0.39; in series [1] (24 h, replicate number 1), -0.13; in series [1] (24 h, replicate number 2) it was -0.11; in series [2] (0 h, replicate number 1), -0.46; in series [2] (0 h, replicate number 2), -0.33; in series [2] (6 h, replicate number 1) it was 0.35. Besides, the “Growth Rate” value in series [2] (6 h, replicate number 2) is on record as -0.15; in series [2] (12 h, replicate number 1) it was 0.06; in series [2] (12 h, replicate number 2), -0.22; in series [2] (18 h, replicate number 1), 0.18; in series [2] (18 h, replicate number 2), -0.09; in series [2] (24 h, replicate number 1), 0.15. Moreover, the “Growth Rate” value in series [2] (24 h, replicate number 2) is reported as 0.08; in series [3] (0 h, replicate number 1), -0.02; in series [3] (0 h, replicate number 2), 0.52; in series [3] (6 h, replicate number 1), -0.4; in series [3] (6 h, replicate number 2) it was 0; in series [3] (12 h, replicate number 1) it was -0.09. Also, the “Growth Rate” value in series [3] (12 h, replicate number 2) is on record as 0.34; in series [3] (18 h, replicate number 1), 0.27; in series [3] (18 h, replicate number 2), 0.46; in series [3] (24 h, replicate number 1), 0.32; in series [3] (24 h, replicate number 2), 0.6.
`O=C(Cc1ccccc1)Nc1nnc(N2CC[C@@H]3[C@H]2CN3c2cccnn2)s1` [A-426]: the “Growth Rate” value in series [1] (6 h, replicate number 1) came out at 0.66; in series [1] (6 h, replicate number 2), 0.16; in series [1] (12 h, replicate number 1), 0.76; in series [1] (12 h, replicate number 2), 0.86; in series [1] (18 h, replicate number 1) it was 0.8; in series [1] (18 h, replicate number 2) it was 0.69. The “Growth Rate” value in series [1] (24 h, replicate number 1) is listed as 0.73; in series [2] (6 h, replicate number 1), 0.31; in series [2] (12 h, replicate number 1), 0.39; in series [2] (18 h, replicate number 1) it was 0.67; in series [2] (24 h, replicate number 1) it was 0.85; in series [3] (0 h, replicate number 1), -0.69. Moreover, the “Growth Rate” value in series [3] (6 h, replicate number 1) came out at 0.79; in series [3] (12 h, replicate number 1), 0.69; in series [3] (18 h, replicate number 1), 0.77; in series [3] (24 h, replicate number 1), 0.84.
Consider `CCCn1cc(-c2cc(C3C(=O)N(CC)c4ccc(C(F)(F)F)cc4N(c4ccccc4)C3=O)cc(OC)c2O)cn1` (stereo unspecified), for which the “Growth Rate” value is reported as 0.51 in series [1] (0 h, replicate number 2); 0.92 in series [1] (6 h, replicate number 1); -0.56 in series [1] (6 h, replicate number 2); 0.46 in series [1] (12 h, replicate number 2); 0.74 in series [1] (18 h, replicate number 2); 0.85 in series [1] (24 h, replicate number 2). Further, the “Growth Rate” value in series [2] (0 h, replicate number 1) is recorded as 0.67; in series [2] (0 h, replicate number 2), 0.59; in series [3] (24 h, replicate number 1), 0.91.
Take `COc1ccc(-c2cc3c(C)nc(N)nc3n([C@H]3CC[C@H](OCCO)CC3)c2=O)cn1` [PF-04691502]: the “Growth Rate” value in series [1] (0 h, replicate number 1) is reported as -1; in series [1] (6 h, replicate number 1), 0.8; in series [1] (6 h, replicate number 2) it was 0.33; in series [1] (12 h, replicate number 1), 0.03; in series [1] (12 h, replicate number 2), -0.28; in series [1] (18 h, replicate number 1), -0.18. Moreover, the “Growth Rate” value was -0.29 in series [1] (18 h, replicate number 2); -0.23 in series [1] (24 h, replicate number 1); -0.32 in series [1] (24 h, replicate number 2); -0.19 in series [2] (6 h, replicate number 1); -0.8 in series [2] (6 h, replicate number 2); -0.29 in series [2] (12 h, replicate number 1). Besides, the “Growth Rate” value is listed as -0.6 in series [2] (12 h, replicate number 2); -0.17 in series [2] (18 h, replicate number 1); -0.38 in series [2] (18 h, replicate number 2); -0.14 in series [2] (24 h, replicate number 1); -0.25 in series [2] (24 h, replicate number 2); -0.97 in series [3] (0 h, replicate number 1). Besides, the “Growth Rate” value amounted to 0.65 in series [3] (18 h, replicate number 1); 0.83 in series [3] (18 h, replicate number 2); 0.6 in series [3] (24 h, replicate number 1); 0.62 in series [3] (24 h, replicate number 2).
